Source: US20020049139A1, “Herbicidal compositions containing DMSO” (priority 1997, published 2002)

Columns and labels:
hosta = test: Phytotoxicity of DMSO sprays on hosta; format: in vivo
Procedure: (§1) Phytotoxicity of DMSO sprays was evaluated on hosta, ferns and azaleas. In each instance, groups of 6 plants were sprayed with 1%, 2%, 5% or 10% aqueous DMSO.

cacao seedling = conditions: aqueous solutions containing 40% or greater amounts of DMSO; cited from earlier work
ferns = test: Phytotoxicity of DMSO sprays on ferns; format: in vivo
Procedure: as §1

azaleas = test: Phytotoxicity of DMSO sprays on azaleas; format: in vivo, azalea
Procedure: as §1

sickle pod [1] = test: Greenhouse control of sickle pod by glyphosate with/without DMSO; format: in vivo
Procedure: Glyphosate (N-(phosphonomethyl) glycine), the active agent (41%) in Composition B and other similar non-selective herbicidal products for control of many annual and perennial grasses, broadleaf weeds, woody shrubs and trees was evaluated in greenhouse studies. The LD50 range for glyphosate in the commercial concentrate Composition B on sickle pod grown in the greenhouse was established at 0.06%, and […].
Data showing effectiveness for control of sickle pod at concentration 0.06% and 0.3% in carrier with 3% DMSO are shown below. The testing procedure used 12 sickle pod 3 inches high selected for uniformity in each treatment. The rating of injury to each plant was based on visual rating of herbicidal activity with +=10%, ++=25%, +++=50%, ++++−75% and dead plants=[…].

sickle pod [2] = test: as above; format: in vivo; remark: listed apart in the source

Structure (SMILES)	Effects (hosta; hosta sprayed with 2% aqueous DMSO)	Effects (hosta; hosta sprayed with 5% aqueous DMSO)	Effects (hosta; hosta sprayed with 10% aqueous DMSO)	effect on cacao seedling (cacao seedling)	Effects (ferns; ferns sprayed with 2% aqueous DMSO)	Effects (ferns; ferns sprayed with 5% aqueous DMSO)	Effects (ferns; ferns sprayed with 10% aqueous DMSO)	Effects (azaleas; azalea sprayed with 2% aqueous DMSO)	Effects (azaleas; azalea sprayed with 5% aqueous DMSO)	Effects (azaleas; azalea sprayed with 10% aqueous DMSO)	% control of sickle pod (sickle pod [1]; 0.03% glyphosate only, 12 days)	% control of sickle pod (sickle pod [1]; 0.06% glyphosate only, 12 days)	% control of sickle pod (sickle pod [1]; 0.06% glyphosate only, 20 days)	% control of sickle pod (sickle pod [1]; 0.06% glyphosate only, 30 days)	% control of sickle pod (sickle pod [1]; 0.06% glyphosate with 3% DMSO, 12 days)	% control of sickle pod (sickle pod [1]; 0.06% glyphosate, 3% DMSO, 20 days)	control of sickle pod over a 30 day interval with 3% DMSO versus glyphosate only (sickle pod [1]; 0.06% glyphosate, 3% DMSO, 30 day interval)	% control of sickle pod (sickle pod [1]; 0.06% glyphosate, 3% DMSO, 30 days)	% control of sickle pod (sickle pod [2]; 0.03% glyphosate with 3% DMSO, 12 days)	sickle pod control with 3% DMSO versus without DMSO (sickle pod [2]; glyphosate at 0.06% and 0.03%, 3% DMSO present)
C[S+](C)[O-] [DMSO, Dimethylsulfoxide]	non-toxic	non-toxic	Margina burn	marginal necroses	non-toxic	burn on fron tips	burn on fron tips	non-toxic	non-toxic	non-toxic										
O=C(O)CNCP(=O)(O)O [glyphosate, N-(phosphonomethyl) glycine]											54%	51%	43%	85%	90%	85%	improved early and sustained control	96%	85%	significant improvement
